Data set [1] is described as follows: skin-PAMPA permeability assay. It counts as in vitro ADME. The note with it: for Papp at 2 µg/mL: concentration 2 µg/mL; for Papp at 4 µg/mL: concentration 4 µg/mL. The protocol: The skin-PAMPA (parallel artificial membrane permeability assay) method was used, as described previously, to determine the permeability of the tested usnic acid enantiomers. The model consists of a two-chamber PAMPA sandwich, with 96 wells each. Before the experiment, the top plate, with the lipid-impregnated skin-mimetic membrane, was hydrated overnight with the hydration solution (200 µL per well). The tested substances were added at concentrations of 2 and 4 µg/mL. Each experiment was repeated at least three times, using six replicates on each plate, and the results were presented as mean ± SD. The amount of permeated active compounds was determined by spectroscopic analysis (Multiskan GO microplate reader, Thermo Scientific MaxQ 4450, Waltham, MA, USA), with a wavelength of 290 nm. For the calibration curve, stock solutions in the range of 12.5–150 µg/mL were prepared.
The apparent permeability coefficients (Papp) were calculated using the following equation:(1) Papp=−ln(1−CA/Cequilibrium)/S×(1/VD+1/VA)×t where VD = donor volume, VA = acceptor volume, Cequilibrium = equilibrium concentration, Cequilibrium=CD×VD+CA×VA/VD+VA , CD = donor concentration, CA = acceptor concentration, S = membrane area, and t = incubation time (in seconds). Compounds with Papp < 1 × 10^−6 cm/s are classified as having low permeability, and those with Papp > 1 × 10^−6 cm/s as highly permeable compounds.

A short description of data set [2]: Ultraviolet spectroscopy in ethanol solutions. It counts as physicochemical. To be noted: ethanol solution; for E1.1 (λmax): extinction at 1 cm path length and 1% concentration; for ‹E1.1mean›: mean specific extinction 290 to 400 nm. Here is the method: Spectra with a scan range of 250–400 nm were recorded in 30 µM ethanol solutions, in 1 cm path length, with 1.5 mL quartz cuvettes on a U-2800 double-beam spectrophotometer (Hitachi, Tokyo, Japan) controlled using UV Solution version 2.2 software. The molar extinction coefficient at maximum absorption (εmax) of the tested compounds was determined in ethanol as the slope of the linear regression of absorbance vs. the concentration of the tested compound (from 10 to 50 µM). The E1,1 coefficient was calculated using the formula: E1,1=ε[L/mol cm]× 10[g/L]/Mg/mol] × 1[cm] where ‹E1,1›mean value is a mean value of the specific extinction over the spectral range from 290 to 400 nm.

A further data set relates to fibroblasts. Further details: method as in PMID 28095330. The note with it: previous study; cited from earlier work.
In the next data set the test system is HDF cells. Further details: method as in PMID 31282672. To be noted: cited from earlier work.
Data set [3] concerns HaCaT human skin keratinocytes. Put plainly: LDH viability test, HaCaT keratinocytes. Type of data set: cell-based. The protocol: (§1) Normal human skin keratinocytes (HaCaT), melanocytes (HEM), and fibroblasts (HDF) were grown at 37 °C in a 5% CO2 atmosphere, with relative humidity, on high-glucose DMEM (HaCaT, HDF), or melanocyte growth medium (HEM), supplemented with 10% fetal bovine serum (FBS) and antibiotics. Before the experiment, cells were seeded onto 96-well plates (1.5 × 10^4 cells/well) for 24 h. Then, the culture medium was replaced with the same medium, containing 2–100 µg/mL of the tested substances, and incubated for 24, 48, or 72 h. LDH release was measured as described previously. Briefly, a proper quantity of a reagent mixture was added to the cell supernatants, and after 30 min the absorbance was measured at 490 nm (the reference wavelength 600 nm) with a BioTek Synergy microplate reader (BioTek Instruments Inc., Winooski, VT, USA). Cytotoxicity was calculated as follows: ((Asample − Acontrol)/(Ama − Acontrol)) × 100; where Asample = the absorbance value for the cells incubated with the tested substances., Acontrol = the absorbance value for untreated, control cells (spontaneous LDH release), and Amax = the absorbance value in Triton-X100-lysed cells (maximum LDH release).
(§2) Each experiment was performed in triplicate, and the results were presented as mean ± SD.

Data set [4] has as its system Human epidermal melanocytes (HEM). Put plainly: LDH viability test, HEM melanocytes. It counts as cell-based. The note with it: Melanocyte, HEM melanocytes (remaining cell lines). The protocol:
as §1, §2

The next data set concerns dermal fibroblasts (HDF). Put plainly: LDH viability test, HDF fibroblasts. The note with it: Homo sapiens, Fibroblast, HDF fibroblasts (remaining cell lines). Type of data set: cell-based. Here is the method: as §1, §2
Another data set relates to HaCaT cells. The note with it: cited from earlier work.
The next data set deals with HEM cells. Further details: method as in PMID 32092663. The note with it: cited from earlier work.
On the set-up of data set [5]: method as in PMID 28704942. The note with it: different test for the evaluation; cited from earlier work.
A further data set concerns irradiated guinea pigs. Further details: method as in earlier work. The note with it: cited from earlier work.
In a further data set the test system is human volunteers. Further details: method as in PMID 12468208. To be noted: versus reference Nivea sun spray (SPF 5); cited from earlier work.
On the set-up of data set [6]: method as in doi:10.1016/S1010-6030(98)00368-2. The note with it: three-week exposure, 12 h/day natural sunlight + 12 h/day incubator with light source; cited from earlier work.
Details of data set [7]: method as in PMID 24238180. The note with it: cited from earlier work.

Where two headings read alike, the source gives them in different places. Bounds are passed on as bounds.

One may read the Papp as the rate of passage across a membrane or cell layer, normalised by area and donor concentration. Low values mean poor permeation, high ones ready permeation. What is called IC50 is the concentration that inhibits the measured activity by half. On to `CC(=O)C1=C(O)C=C2Oc3c(C(C)=O)c(O)c(C)c(O)c3[C@@]2(C)C1=O` [(+)-usnic acid], for which, in data set [1], the Papp at 2 µg/mL was determined as 7.53 ± 1.25 ×10⁻⁶ cm/s and the Papp at 4 µg/mL is 7.9 ± 0.65 ×10⁻⁶ cm/s. For the same molecule, in [2], the εmax is recorded as 21 120 M^−1 cm^−1, the λmax stood at 281 nm, the “E1.1 (λmax)” value is recorded as 613 and the “‹E1.1mean›” value stood at 76. In addition, the IC50 in the data set with fibroblasts is given as above 40 µg/mL. Besides, in the data set with HDF cells (conversion of > 10 µM), the IC50 result is “about 3.5 µg/mL”. Further, in the data set with HDF cells (read-out: IC50), the IC50 is above 10 µM.
Molecule `CC(=O)C1=C(O)C=C2Oc3c(C(C)=O)c(O)c(C)c(O)c3[C@]2(C)C1=O` [(−)-usnic acid] registered a Papp at 2 µg/mL in data set [1] of 7.46 ± 1.12 ×10⁻⁶ cm/s. This molecule came in with a Papp at 4 µg/mL in data set [1] of 8.28 ± 1.33 ×10⁻⁶ cm/s. Besides, the IC50 is 80.8 µg/mL in data set [3] (48 h), 70.1 µg/mL in data set [3] (72 h), above 100 µg/mL in data set [4] and above 100 µg/mL with dermal fibroblasts (HDF).
On to `CCCCC(CC)COC(=O)C(C#N)=C(c1ccccc1)c1ccccc1` (centres unmarked) [octocrylene, 2-ethylhexyl 2-cyano-3,3-diphenylacrylate, reference compound], for which, in data set [2], the εmax is recorded as 13 650 M^−1 cm^−1, the λmax was 302 nm, the “E1.1 (λmax)” value was found to be 378 and the “‹E1.1mean›” value stood at 141.
Regarding `CC(=O)c1c(O)c(C)c(O)c2c1OC1=CC(=O)C(C(C)=O)C(=O)C12C` (centres unmarked) [usnic acid, 2,6-diacetyl-7,9-dihydroxy-8,9b-dimethyl-1,3(2H,9bH)-dibenzofurandione], the IC50 result in the data set on HaCaT cells (conversion of the µM value) was “about 64 µg/mL”; in the data set with HaCaT cells (read-out: IC50), 186 ± 4.8 µM; in the data set on HEM cells (conversion of the µM value) it was “about 2.4 µg/mL”; in the data set on HEM cells (read-out: IC50), 6.9 µM. In data set [5], the “PF UVA” value was 1.8. Besides, the SPF in [5] was 3.9. For the same molecule, the “SPF as compared to the reference (homosalate)” value in the data set with irradiated guinea pigs is “two times higher”. For the same molecule, in the data set on human volunteers, the “effectiveness in sun protection” value is “comparable to a reference Nivea sun spray”. Also, the “stability of methanol solution exposed to light” value in [6] is listed as “wholly degraded”.
Take dimethicodiethylbenzalmalonate: the “E1,1 value” in data set [7] was ~ 150.

The values are drawn from PMC8433837, “(+)-Usnic Acid as a Promising Candidate for a Safe and Stable Topical Photoprotective Agent” (Molecules, 2021).
